Measured values published in ChEMBL document CHEMBL3217511, “Structure-activity evaluation of new uracil-based non-nucleoside inhibitors of HIV reverse transcriptase” (Medchemcomm, 2013).

Experiments:
[1] = biological target: Human immunodeficiency virus type 1 reverse transcriptase (Human immunodeficiency virus 1, UniProt Q72547); test: Inhibition of wild-type HIV1 Reverse transcriptase p51/p66 after 30 mins using alpha-[32P]dATP by liquid scintillation counting
[2] = test system: Human immunodeficiency virus type 1 reverse transcriptase (Human immunodeficiency virus 1), Q72547 [V106A]; test: Inhibition of HIV1 Reverse transcriptase p51/p66 V106A mutant at 10 uM after 30 mins using alpha-[32P]dATP by liquid scintillation counting
[3] = Inhibition of HIV1 Reverse transcriptase p51/p66 G190A mutant after 30 mins using alpha-[32P]dATP by liquid scintillation counting; design: species or system Human immunodeficiency virus 1
[4] = test system: Human immunodeficiency virus type 1 reverse transcriptase (Human immunodeficiency virus 1), Q72547 [Y181C]; test: Inhibition of HIV1 Reverse transcriptase p51/p66 Y181C mutant at 10 uM after 30 mins using alpha-[32P]dATP by liquid scintillation counting
[5] = test system: Human immunodeficiency virus 1; test: Inhibition of HIV1 Reverse transcriptase p51/p66 G190A mutant at 10 uM after 30 mins using alpha-[32P]dATP by liquid scintillation counting
[6] = test system: Human immunodeficiency virus type 1 reverse transcriptase (Human immunodeficiency virus 1), Q72547 [L100I]; test: Inhibition of HIV1 Reverse transcriptase p51/p66 L100I mutant at 10 uM after 30 mins using alpha-[32P]dATP by liquid scintillation counting
[7] = test system: Human immunodeficiency virus type 1 reverse transcriptase (Human immunodeficiency virus 1), Q72547 [K103N]; test: Inhibition of HIV1 Reverse transcriptase p51/p66 K103N mutant at 10 uM after 30 mins using alpha-[32P]dATP by liquid scintillation counting
[8] = test system: Human immunodeficiency virus type 1 reverse transcriptase (Human immunodeficiency virus 1), Q72547 [K103N,Y181C]; test: Inhibition of HIV1 Reverse transcriptase p51/p66 K103N/Y181C mutant at 10 uM after 30 mins using alpha-[32P]dATP by liquid scintillation counting
[9] = biological target: Human immunodeficiency virus type 1 reverse transcriptase (Human immunodeficiency virus 1, UniProt Q72547, Y181C); test: Inhibition of HIV1 Reverse transcriptase p51/p66 Y181C mutant after 30 mins using alpha-[32P]dATP by liquid scintillation counting
[10] = biological target: Human immunodeficiency virus type 1 reverse transcriptase (Human immunodeficiency virus 1, UniProt Q72547, V106A); test: Inhibition of HIV1 Reverse transcriptase p51/p66 V106A mutant after 30 mins using alpha-[32P]dATP by liquid scintillation counting
[11] = biological target: Human immunodeficiency virus type 1 reverse transcriptase (Human immunodeficiency virus 1, UniProt Q72547, K103N); test: Inhibition of HIV1 Reverse transcriptase p51/p66 K103N mutant after 30 mins using alpha-[32P]dATP by liquid scintillation counting
[12] = biological target: Human immunodeficiency virus type 1 reverse transcriptase (Human immunodeficiency virus 1, UniProt Q72547, K103N/Y181C); test: Inhibition of HIV1 Reverse transcriptase p51/p66 K103N/Y181C mutant after 30 mins using alpha-[32P]dATP by liquid scintillation counting
[13] = test system: Human immunodeficiency virus 1; test: Selectivity ratio of IC50 for HIV1 Reverse transcriptase p51/p66 K103N mutant to IC50 for wild-type HIV1 Reverse transcriptase p51/p66
[14] = biological target: Human immunodeficiency virus type 1 reverse transcriptase (Human immunodeficiency virus 1) (UniProt Q72547); test: Inhibition of wild-type HIV1 Reverse transcriptase p51/p66 at 10 uM after 30 mins using alpha-[32P]dATP by liquid scintillation counting
[15] = test system: Human immunodeficiency virus 1; test: Selectivity ratio of IC50 for HIV1 Reverse transcriptase p51/p66 L100I mutant to IC50 for wild-type HIV1 Reverse transcriptase p51/p66
[16] = biological target: Human immunodeficiency virus type 1 reverse transcriptase (Human immunodeficiency virus 1, UniProt Q72547, L100I); test: Inhibition of HIV1 Reverse transcriptase p51/p66 L100I mutant after 30 mins using alpha-[32P]dATP by liquid scintillation counting

For `O=C(Cc1ccccc1)OC1C=CC(n2ccc(=O)n(Cc3cc(F)cc(F)c3)c2=O)C1` (centres undefined), the IC50 [1] was over 100 µM.

In the case of `O=C(Cc1ccccc1)OC1C=CC(n2ccc(=O)n(Cc3ccccc3)c2=O)C1` (centres undefined), the IC50 [1] is reported as 52 µM.

Compound `O=C(Oc1ccccc1Cn1ccc(=O)[nH]c1=O)c1ccccc1` has an IC50 [1] of over 100 µM.

In the case of `O=C(Oc1ccc(Cn2ccc(=O)n(Cc3ccccc3)c2=O)cc1)c1ccccc1`, the IC50 [1] is reported as over 100 µM.

`Cc1ccnc2c1NC(=O)c1cccnc1N2C1CC1` [NEVIRAPINE] gave an inhibition [2] of under 10%, an IC50 [3] of over 2000 µM and an inhibition [4] of under 10%. It also gave an inhibition [5] of under 10%, an inhibition [6] of 48% and an inhibition [7] of under 10%. The inhibition [8] was under 10%.

Compound `Cc1cc(C)cc(C(=O)OC2C=CC(n3ccc(=O)n(Cc4ccccc4)c3=O)C2)c1` (centres undefined) has an IC50 [9] of over 20 µM, an IC50 [1] of 8.2 µM and an inhibition [2] of 14%. The IC50 [10] was over 20 µM, the IC50 [11] was 17.3 µM and the IC50 [3] was over 100 µM. The inhibition [4] was 24%, the inhibition [5] was under 10% and the inhibition [6] was 77%. For the same compound, the inhibition [7] was 37%, the inhibition [8] was 23% and the IC50 [12] was over 20 µM. It also gave a Ratio IC50 [13] of 2.11, an inhibition [14] of 52% and a Ratio IC50 [15] of 0.26. For the same compound, the IC50 [16] was 2100 nM.

`Cc1cc(C)cc(C(=O)OC2C=CC(n3ccc(=O)[nH]c3=O)C2)c1` (centres undefined) gave an IC50 [1] of over 100 µM.

For `O=C(OC1C=CC(n2ccc(=O)n(Cc3ccccc3)c2=O)C1)c1ccccc1` (centres undefined), the inhibition [2] was 12%, the IC50 [3] was over 50 µM and the inhibition [4] was 11%. The inhibition [5] was under 10%, the inhibition [6] was 83% and the inhibition [7] was 26%. It also gave an inhibition [8] of 15% and an inhibition [14] of 45%.

Compound `O=C(OC1C=CC(n2ccc(=O)n(Cc3ccccc3)c2=O)C1)c1cc(Cl)cc(Cl)c1` (centres undefined) has an IC50 [9] of over 10 µM, an IC50 [1] of 5.1 µM and an inhibition [2] of 20%. The IC50 [10] was over 10 µM, the IC50 [11] was 8.8 µM and the IC50 [3] was over 100 µM. For the same compound, the inhibition [4] was 17%, the inhibition [5] was under 10% and the inhibition [6] was 89%. For the same compound, the inhibition [7] was 53%, the inhibition [8] was 25% and the IC50 [12] was over 10 µM. It also gave a Ratio IC50 [13] of 1.69, an inhibition [14] of 59% and a Ratio IC50 [15] of 0.25. For the same compound, the IC50 [16] was 1290 nM.

With `O=C(Oc1cccc(Cn2ccc(=O)[nH]c2=O)c1)c1cc(Cl)cc(Cl)c1` the IC50 [1] was 42 µM.

`O=C(Oc1ccc(Cn2ccc(=O)[nH]c2=O)cc1)c1ccccc1` gave an IC50 [1] of over 100 µM.

Work on `O=C(Oc1ccccc1Cn1ccc(=O)n(Cc2ccccc2)c1=O)c1ccccc1` yielded an IC50 [1] of over 100 µM.

`O=C(CCc1ccccc1)OC1C=CC(n2ccc(=O)n(Cc3cc(F)cc(F)c3)c2=O)C1` (centres undefined) gave an IC50 [1] of over 100 µM.

For `Cc1cc(C)cc(C(=O)OC2C=CC(n3ccc(=O)n(C(=O)c4cc(C)cc(C)c4)c3=O)C2)c1` (centres undefined), the IC50 [1] was over 100 µM.

`O=C(CCc1ccccc1)OC1C=CC(n2ccc(=O)n(Cc3ccccc3)c2=O)C1` (centres undefined) gave an IC50 [1] of over 100 µM.

For `N#Cc1cccc(C(=O)OC2C=CC(n3ccc(=O)[nH]c3=O)C2)c1` (centres undefined), the IC50 [1] was over 100 µM.

Compound `O=C(OC1C=CC(n2ccc(=O)n(C(=O)c3cc(Cl)cc(Cl)c3)c2=O)C1)c1cc(Cl)cc(Cl)c1` (centres undefined) has an IC50 [1] of over 100 µM.

Compound `O=C(OC1C=CC(n2ccc(=O)[nH]c2=O)C1)c1cc(Cl)cc(Cl)c1` (centres undefined) has an IC50 [1] of over 100 µM.

With `N#Cc1cccc(C(=O)OC2C=CC(n3ccc(=O)n(Cc4ccccc4)c3=O)C2)c1` (centres undefined) the IC50 [1] was over 100 µM.

In the case of `O=C(Oc1cccc(Cn2ccc(=O)n(Cc3ccccc3)c2=O)c1)c1ccccc1`, the IC50 [1] is reported as 32.3 µM.

Work on `O=C(Oc1cccc(Cn2ccc(=O)[nH]c2=O)c1)c1ccccc1` yielded an IC50 [1] of over 100 µM.
